These results are taken from ChEMBL document CHEMBL1201862, “PubChem BioAssay data set” (2004).

Holding throughout (experiment): NCI tumour cell line growth inhibition, 48 h
Assay [1] relates to EKVX.
For assay [2], the system named is CCRF-CEM.
For assay [3], the system named is U-251.
The test system of assay [4] is RPMI-8226.
For assay [5], the system named is OVCAR-4.
Assay [6] deals with DMS-114.
Assay [7] relates to NCI/ADR-RES.
The subject of assay [8] is LOX IMVI.
Assay [9] concerns RXF 393.
Assay [10] deals with SNB-75.
Assay [11] deals with SR.
For assay [12], the system named is UO-31.
Assay [13] deals with NCI-H226.
In assay [14] the test system is SK-MEL-5.
In assay [15] the test system is SF-539.
Assay [16] concerns M19-MEL.
Assay [17] deals with HCT-116.
The subject of assay [18] is SNB-19.
Assay [19] deals with HCC 2998.
The subject of assay [20] is OVCAR-5.

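48-hour exposure; five concentrations; linearly interpolated endpoints. The concentration for 50% growth inhibition is given as GI50.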 Activity calls are given as the source filed them. No stated cut-off is given here; in the data, active = GI50 up to about 1.1 µM and inactive = higher.

Regarding `CC(=O)OC1=CC2(OC(C)=O)CC(C)(C)C1C1C(=O)C=CC(=O)C12` (stereo not given), the GI50 in assay [1] is > 68.9 µM (inactive); in assay [2], > 100 µM (inactive); in assay [3], > 66.2 µM (inactive); in assay [4], > 66.8 µM (inactive); in assay [5], > 100 µM (inactive); in assay [6], > 100 µM (inactive). The GI50 in assay [7] is 49.8 µM (inactive); in assay [8] it was > 42.1 µM (inactive); in [9], 44.6 µM (inactive); in [10], > 64.6 µM (inactive); in assay [11], > 64.3 µM (inactive); in assay [12], > 70 µM (inactive). Moreover, the GI50 in assay [13] was 29.4 µM (inactive); in [14], > 85.3 µM (inactive); in [15], > 47.1 µM (inactive); in [16] it was > 100 µM (inactive); in assay [17], > 51.3 µM (inactive); in assay [18], > 100 µM (inactive). The GI50 in assay [19] is > 58.3 µM (inactive); in [20], > 100 µM (inactive).
With `Cc1nc2ccccc2c(=O)n1/N=C(\N=N\c1cc(Cl)ccc1Cl)c1ccccc1`, the GI50 in [1] is 20.7 µM (inactive); in assay [2], 48.6 µM (inactive); in [3] it was 27.1 µM (inactive); in assay [4], 41.4 µM (inactive); in assay [5] it was 51.8 µM (inactive); in [6], 30.2 µM (inactive). Further, the GI50 in [7] is 26.6 µM (inactive); in [8], 40.6 µM (inactive); in [9], 63.5 µM (inactive); in [10], 16.1 µM (inactive); in assay [11], 44.8 µM (inactive); in assay [12] it was 22.9 µM (inactive). In addition, the GI50 in assay [13] is 43.1 µM (inactive); in assay [14] it was 36.2 µM (inactive); in [15] it was 46.5 µM (inactive); in assay [16], 77.4 µM (inactive); in assay [17], 17.4 µM (inactive); in assay [18], 29 µM (inactive). For the same compound, the GI50 is 32.1 µM (inactive) in [19] and > 100 µM (inactive) in assay [20].
For the compound `O=C1C2C(C(=O)N1O)N(Cc1ccccc1)C(=O)N2Cc1ccccc1` (stereo not given), the GI50 in [1], in assay [2], in assay [3], in assay [4], in [5] and in assay [6] was > 100 µM (inactive) throughout. Also, the GI50 in assay [8], in assay [9], in [10], in assay [11], in assay [12] and in assay [13] was > 100 µM (inactive) each time. Also, the GI50 in [14], in assay [15], in [16], in assay [17], in assay [18] and in [19] was > 100 µM (inactive) in each case. For the same compound, the GI50 in assay [20] is > 100 µM (inactive).
Consider `O=C(Cc1ccccc1)NN1C(=O)C(Cl)C1c1cc(Br)cc(Br)c1O` (stereo not given), for which the GI50 in [1] is 7.76 µM (inactive); in assay [2], 3.05 µM (inactive); in [3] it was 13 µM (inactive); in [4], 6.81 µM (inactive); in [5], 13 µM (inactive); in assay [6], 3.97 µM (inactive). The GI50 in assay [8] was 9.95 µM (inactive); in [9] it was 17.7 µM (inactive); in assay [10], 16.2 µM (inactive); in assay [11] it was 0.794 µM (active); in [12], 4.11 µM (inactive); in assay [13], 14.7 µM (inactive). In addition, the GI50 is 13.6 µM (inactive) in assay [14]; 15.8 µM (inactive) in assay [16]; 3.21 µM (inactive) in assay [17]; 8.34 µM (inactive) in [18]; 13.8 µM (inactive) in [19]; 16.1 µM (inactive) in [20].
Take `CC(C)C(=O)Nc1nc2c(ncn2C2OC(CO)C(O)C2O)c(=O)[nH]1` (stereo not given): the GI50 is > 100 µM (inactive) in assay [1]; > 100 µM (inactive) in assay [2]; > 100 µM (inactive) in assay [3]; > 100 µM (inactive) in assay [4]; > 100 µM (inactive) in [5]; 67.1 µM (inactive) in assay [6]. Also, the GI50 in [8], in [9], in assay [10], in assay [11], in assay [12] and in assay [13] was > 100 µM (inactive) each time. Further, the GI50 in assay [14], in [15], in assay [16], in assay [17], in [19] and in assay [20] was > 100 µM (inactive) in each case.
`N#CCCCCCOCCOCCOCCOCCOCCCCCC#N`: the GI50 in [1], in assay [2], in assay [3], in assay [5], in assay [6] and in assay [8] was > 100 µM (inactive) in each case. Moreover, the GI50 in assay [9], in assay [10], in assay [11], in [12], in assay [13] and in assay [14] was > 100 µM (inactive) each time. For the same compound, the GI50 in assay [16], in assay [17], in [18], in assay [19] and in [20] was > 100 µM (inactive) each time.
Turning to `CN(C)c1ccc2nc3c(ccc4ccccc43)[o+]c2c1`, the GI50 is 20.9 µM (inactive) in assay [1]; 3.17 µM (inactive) in [2]; 16.1 µM (inactive) in assay [3]; 3.48 µM (inactive) in assay [4]; 12.8 µM (inactive) in [5]; 19.3 µM (inactive) in assay [6]. Further, the GI50 in assay [8] is 6 µM (inactive); in [9] it was 13.3 µM (inactive); in assay [10], 17.5 µM (inactive); in assay [11], 3.42 µM (inactive); in assay [12], 17.7 µM (inactive); in assay [13], 17.7 µM (inactive). The GI50 in assay [14] was 13.4 µM (inactive); in [15], 18.2 µM (inactive); in assay [16], 3.03 µM (inactive); in assay [17], 5.97 µM (inactive); in assay [18] it was 17.7 µM (inactive); in assay [19] it was 17.5 µM (inactive). Besides, the GI50 in [20] is 21.9 µM (inactive).
For `CC(C)(O)[C@@H]1CCC(C)([C@H]2[C@@H](O)CC3(C)C4CC(OC5OC(CO)C(O)C(O)C5O)C5C(C)(C)[C@@H](OC6OCC(O)C(O)C6O)CC[C@@]56C[C@@]46CC[C@]23C)O1` (stereo not given in full), the GI50 in [1], in assay [2], in assay [3], in assay [4], in [5] and in [6] was > 100 µM (inactive) in each case. Besides, the GI50 in assay [8], in [9], in assay [10], in assay [11], in assay [12] and in assay [13] was > 100 µM (inactive) in each case. Also, the GI50 in assay [14], in assay [15], in [16], in [17], in [18] and in assay [19] was > 100 µM (inactive) in each case. In addition, the GI50 in assay [20] was > 100 µM (inactive).
In the case of `C1CN1c1nc(N2CC2)nc(N2CC2)n1`, the GI50 in assay [1] was 19.5 µM (inactive); in assay [2], 0.82 µM (active); in assay [3], 3.92 µM (inactive); in [4], 12.5 µM (inactive); in [5], 16.2 µM (inactive); in assay [6], 2.99 µM (inactive). Besides, the GI50 is 5.42 µM (inactive) in assay [7]; 3.08 µM (inactive) in [8]; 6.78 µM (inactive) in assay [9]; 5.66 µM (inactive) in [10]; 0.5 µM (active) in assay [11]; 7.36 µM (inactive) in [12]. Moreover, the GI50 was 8.24 µM (inactive) in assay [13]; 6.19 µM (inactive) in assay [14]; 2.68 µM (inactive) in assay [15]; 12.3 µM (inactive) in assay [16]; 8.55 µM (inactive) in [17]; 6.65 µM (inactive) in [18]. Besides, the GI50 in assay [19] was 8.87 µM (inactive); in assay [20], 11.5 µM (inactive).
As for `O=NN(CCCl)C(=O)NCCCl` [CARMUSTINE], the GI50 is 120 µM (inactive) in assay [1]; 18.7 µM (inactive) in [2]; 52.1 µM (inactive) in [3]; 51.3 µM (inactive) in assay [4]; 87.9 µM (inactive) in assay [5]; 61.5 µM (inactive) in [6]. Further, the GI50 in assay [7] is 94.6 µM (inactive); in [8], 38 µM (inactive); in assay [9], 76.2 µM (inactive); in assay [10], 52.2 µM (inactive); in [11], 14 µM (inactive); in assay [12], 98.2 µM (inactive). For the same compound, the GI50 is 105 µM (inactive) in [13]; 78.7 µM (inactive) in assay [14]; 44.8 µM (inactive) in assay [15]; 77.6 µM (inactive) in [16]; 73.6 µM (inactive) in [17]; 68.4 µM (inactive) in [18]. The GI50 in assay [19] was 93.8 µM (inactive); in assay [20] it was 105 µM (inactive).
